Biological target: Adenosine receptor A2a (Rattus norvegicus, UniProt P30543)
Sequence (P30543 whole entry): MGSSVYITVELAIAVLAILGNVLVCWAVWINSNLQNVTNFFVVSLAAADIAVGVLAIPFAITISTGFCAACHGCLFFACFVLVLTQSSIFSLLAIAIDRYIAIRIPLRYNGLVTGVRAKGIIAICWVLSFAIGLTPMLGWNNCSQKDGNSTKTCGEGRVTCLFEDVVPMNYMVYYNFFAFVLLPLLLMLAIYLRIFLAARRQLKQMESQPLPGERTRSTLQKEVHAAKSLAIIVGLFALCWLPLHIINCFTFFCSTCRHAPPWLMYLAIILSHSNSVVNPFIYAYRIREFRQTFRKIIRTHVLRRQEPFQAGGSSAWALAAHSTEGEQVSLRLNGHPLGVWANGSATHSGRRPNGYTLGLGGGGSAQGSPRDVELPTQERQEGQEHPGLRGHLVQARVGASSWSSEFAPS

Structure (SMILES) | Ki [µM]
Cn1c(=O)c2c(nc(/C=C/c3ccc(Cl)c(Cl)c3)n2C)n(C)c1=O [(E)-8-(3,4-Dichlorostyryl)caffeine (4b)] | 0.0448
CCn1c(/C=C/c2cccc(Br)c2)nc2c1c(=O)n(C)c(=O)n2C [(E)-8-(3-Bromostyryl)-1,3-dimethyl-7-ethylxanthine (5d)] | 0.0582
CCn1c(CCCc2ccccc2)nc2c1c(=O)n(C)c(=O)n2C [8-(3-Phenylpropyl)-1,3-dimethyl-7-ethylxanthine (9b)] | > 1
CCn1c(=O)c2c(nc(/C=C/c3cccc(Br)c3)n2C)n(CC)c1=O [(E)-8-(3-Bromostyryl)-1,3-diethyl-7-methylxanthine (6d)] | 0.0172
CCn1c(=O)c2c(nc(CCCc3ccccc3)n2CC)n(CC)c1=O [8-(3-Phenylpropyl)-1,3,7-triethylxanthine (9d)] | > 1
Cn1c(=O)c2c(nc(/C=C/c3ccc(Cl)cc3)n2C)n(C)c1=O | 0.169
CCn1c(=O)c2c(nc(/C=C/c3cccc(Cl)c3)n2C)n(CC)c1=O [(E)-8-(3-Chlorostyryl)-1,3-diethyl-7-methylxanthine (6a)] | 0.0243
Cn1c(=O)c2c(nc(CCCc3ccccc3)n2C)n(C)c1=O [8-(3-Phenylpropyl)-1,3,7-trimethylxanthine (9a)] | > 1
CCn1c(/C=C/c2cccc(C(F)(F)F)c2)nc2c1c(=O)n(C)c(=O)n2C [(E)-8-[3-(Trifluoromethyl)styryl]-1,3-dimethyl-7-ethylxanthine (5f)] | 0.0938
CCn1c(=O)c2c(nc(/C=C/c3ccc(Br)cc3)n2C)n(CC)c1=O [(E)-8-(4-Bromostyryl)-1,3-diethyl-7-methylxanthine (6e)] | 0.0289
CCn1c(/C=C/c2ccc(Cl)c(Cl)c2)nc2c1c(=O)n(C)c(=O)n2C [(E)-8-(3,4-Dichlorostyryl)-1,3-dimethyl-7-ethylxanthine (5c)] | 0.0329
CCn1c(=O)c2c(nc(/C=C/c3ccc(Cl)c(Cl)c3)n2CC)n(CC)c1=O [(E)-8-(3,4-Dichlorostyryl)-1,3,7-triethylxanthine (7c)] | 0.428
Cn1c(=O)c2c(nc(/C=C/c3cccc(Br)c3)n2C)n(C)c1=O [(E)-8-(3-Bromostyryl)-1,3,7-trimethylxanthine (4c)] | 0.0284
CCn1c(=O)c2c(nc(/C=C/c3cccc(Cl)c3)n2CC)n(CC)c1=O [(E)-8-(3-Chlorostyryl)-1,3,7-triethylxanthine (7a)] | > 1
Cn1c(=O)c2c(nc(COc3ccccc3)n2C)n(C)c1=O | 0.137
CCn1c(=O)c2c(nc(COc3ccccc3)n2C)n(CC)c1=O [8-Phenoxymethyl-1,3-diethyl-7-methylxanthine (8c)] | > 1
CCn1c(=O)c2c(nc(/C=C/c3ccc(Br)cc3)n2CC)n(CC)c1=O [(E)-8-(4-Bromostyryl)-1,3,7-triethylxanthine (7e)] | 0.083
CCn1c(/C=C/c2ccc(Br)cc2)nc2c1c(=O)n(C)c(=O)n2C [(E)-8-(4-Bromostyryl)-1,3-dimethyl-7-ethylxanthine (5e)] | 0.546
CCn1c(/C=C/c2cccc(Cl)c2)nc2c1c(=O)n(C)c(=O)n2C [(E)-8-(3-Chlorostyryl)-1,3-dimethyl-7-ethylxanthine (5a)] | 0.421
CCn1c(=O)c2c(nc(/C=C/c3cccc(Br)c3)n2CC)n(CC)c1=O [(E)-8-(3-Bromostyryl)-1,3,7-triethylxanthine (7d)] | 0.161
CCn1c(=O)c2c(nc(CCCc3ccccc3)n2C)n(CC)c1=O [8-(3-Phenylpropyl)-1,3-diethyl-7-methylxanthine (9c)] | > 1
CCn1c(=O)c2c(nc(/C=C/c3cccc(C(F)(F)F)c3)n2C)n(CC)c1=O [(E)-8-[3-(Trifluoromethyl)styryl]-1,3-diethyl-7-methylxanthine (6f)] | 0.0119
CCn1c(=O)c2c(nc(/C=C/c3ccc(Cl)cc3)n2CC)n(CC)c1=O [(E)-8-(4-Chlorostyryl)-1,3,7-triethylxanthine (7b)] | > 1
CCn1c(=O)c2c(nc(/C=C/c3cccc(C(F)(F)F)c3)n2CC)n(CC)c1=O [(E)-8-[3-(Trifluoromethyl)styryl]-1,3,7-triethylxanthine (7f)] | > 1
Cn1c(=O)c2c(nc(/C=C/c3ccc(Br)cc3)n2C)n(C)c1=O [(E)-8-(4-Bromostyryl)-1,3,7-trimethylxanthine (4d)] | 0.127
Cn1c(=O)c2c(nc(/C=C/c3cccc(C(F)(F)F)c3)n2C)n(C)c1=O | 0.125
CCn1c(COc2ccccc2)nc2c1c(=O)n(C)c(=O)n2C [8-Phenoxymethyl-1,3-dimethyl-7-ethylxantine (8b)] | > 1
CCn1c(=O)c2c(nc(COc3ccccc3)n2CC)n(CC)c1=O [8-Phenoxymethyl-1,3,7-triethylxanthine (8d)] | > 1
CCn1c(/C=C/c2ccc(Cl)cc2)nc2c1c(=O)n(C)c(=O)n2C [(E)-8-(4-Chlorostyryl)-1,3-dimethyl-7-ethylxanthine (5b)] | 0.0953
